{
  "source": "paper PMC4640066",
  "about": "(Nature Communications, 2015)",
  "key": {"human γ-tubulin [1]": {"target": "T1, human γ-tubulin (Homo sapiens, UniProt P23258)", "T1 construct": "myc (C); 6His (C); made in house; host or cells: Sf21 insect cells (baculovirus)", "T1 sequence (P23258 whole entry)": "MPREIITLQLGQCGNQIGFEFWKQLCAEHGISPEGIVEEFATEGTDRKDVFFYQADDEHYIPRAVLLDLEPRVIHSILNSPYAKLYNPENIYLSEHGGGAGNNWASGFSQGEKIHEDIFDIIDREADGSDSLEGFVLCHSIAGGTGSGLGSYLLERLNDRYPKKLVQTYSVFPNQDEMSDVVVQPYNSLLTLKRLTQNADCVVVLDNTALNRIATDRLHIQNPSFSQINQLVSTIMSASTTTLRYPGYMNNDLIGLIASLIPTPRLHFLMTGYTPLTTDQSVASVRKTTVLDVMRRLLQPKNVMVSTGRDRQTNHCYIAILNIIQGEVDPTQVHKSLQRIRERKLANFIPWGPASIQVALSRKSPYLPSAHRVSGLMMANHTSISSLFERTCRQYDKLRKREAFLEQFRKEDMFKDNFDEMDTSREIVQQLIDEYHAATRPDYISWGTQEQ", "assay": "GTP binding to recombinant γ-tubulin (UV crosslinking)", "details": "70 nM γ-tubulin, α-[32P]-GTP", "procedure": "Supplementary Figure 2. Binding of GTP and GCP4 to recombinant human γ-tubulin\n(a) GTP binding to γ-tubulin. 70 nM of γ-tubulin was mixed with indicated concentrations of α-[32P]-GTP, and cross-linked by UV irradiation. After separation of crosslinked γ-tubulin and unbound α-[32P]-GTP, radioactivity was detected with a phosphorimager. Band intensities were quantified with ImageJ. The Kd (121.1 nM) was calculated using GraphPad Prizm software. (b) Purified human γ-tubulin and GCP4 interaction was detected by gel filtration and SDS-PAGE. Equal volumes of γ-tubulin (1.5 µM) and GCP4 (4 µM), γ-tubulin (1.5 µM) and buffer, or GCP4 (4 µM) and buffer were mixed and incubated for 30 min at 20 °C. Proteins were separated by size exclusion column Superdex 200 10/300 GL pre-equilibrated with gel filtration buffer (50 mM MES pH6.6, 500 mM KCl, 5 mM MgSO4, 1 mM EGTA, 1 mM DTT, 10 µM GTP).\nγ-Tubulin alone and GCP4 alone were eluted at retention times of 27 min and 24 min, respectively. The […]\nGCP4 and γ-tubulin in these fractions were confirmed by SDS-PAGE and silver staining.\n(1 picture or pasted object on this page, not shown here)"}, "α/β-tubulin": {"target": "T2, α/β-tubulin (Sus scrofa, UniProt P02550+P02554)", "T2 construct": "α/β-Tubulin was purified from porcine brain; from tissue; host or cells: porcine brain", "T2 sequence (P02554 whole entry)": "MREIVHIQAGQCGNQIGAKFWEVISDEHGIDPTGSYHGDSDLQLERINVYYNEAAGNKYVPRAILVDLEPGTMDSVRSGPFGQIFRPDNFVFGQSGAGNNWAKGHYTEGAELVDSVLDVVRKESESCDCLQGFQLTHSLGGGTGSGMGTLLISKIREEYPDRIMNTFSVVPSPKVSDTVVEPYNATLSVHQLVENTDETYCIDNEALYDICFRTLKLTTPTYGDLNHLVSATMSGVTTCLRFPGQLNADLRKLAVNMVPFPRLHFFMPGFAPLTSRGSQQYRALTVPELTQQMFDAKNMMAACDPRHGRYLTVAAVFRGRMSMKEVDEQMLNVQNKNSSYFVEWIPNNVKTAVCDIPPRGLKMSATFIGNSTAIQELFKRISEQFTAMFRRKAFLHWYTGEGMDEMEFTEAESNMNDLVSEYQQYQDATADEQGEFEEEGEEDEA", "T2 sequence (P02550 whole entry)": "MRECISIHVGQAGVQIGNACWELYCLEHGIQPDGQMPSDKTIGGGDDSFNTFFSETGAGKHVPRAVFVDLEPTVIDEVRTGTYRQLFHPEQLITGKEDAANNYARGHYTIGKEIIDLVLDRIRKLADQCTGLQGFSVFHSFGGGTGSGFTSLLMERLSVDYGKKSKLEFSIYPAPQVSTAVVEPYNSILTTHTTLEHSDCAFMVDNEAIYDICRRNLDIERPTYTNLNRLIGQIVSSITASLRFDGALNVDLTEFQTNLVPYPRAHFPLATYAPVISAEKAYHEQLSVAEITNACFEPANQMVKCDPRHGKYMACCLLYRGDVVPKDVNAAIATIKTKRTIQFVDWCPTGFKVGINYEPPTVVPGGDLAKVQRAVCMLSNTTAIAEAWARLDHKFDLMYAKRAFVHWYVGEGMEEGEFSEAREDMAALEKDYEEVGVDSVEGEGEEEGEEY", "assay": "Tryptophan-based drug-binding assay, α/β-tubulin", "parameters": "species or system porcine", "details": "tryptophan fluorescence decrease; 1 μM protein; mean±s.d., three independent experiments", "procedure": "γ-TuSC was purified as described. Briefly, γ-TuSC was expressed in HighFive cells and purified by sequential steps of Ni-NTA (Macherei-Nagel) purification, MonoQ column purification (GE Healthcare) and size exclusion (Superdex 200 column, GE Healthcare)[14]. α/β-Tubulin was purified from porcine brain through four cycles of polymerization and depolymerization using 1 M PIPES buffer (1 M PIPES-KOH, 1 mM EGTA, 1 mM MgCl2, pH 6.8) for effective removal of MT-associated proteins.\n(§1) Gel filtration buffer for γ-tubulin purification (50 mM MES pH 6.6, 500 mM KCl, 5 mM MgCl2, 1 mM EGTA and 1 mM DTT) supplemented with 10% of glycerol was used as an assay buffer. γ-tubulin and α/β-tubulin were diluted in this assay buffer to reach a final protein concentration of 1 μM. A final concentration of 10 μM or 1 mM GTP was added to the samples. Proteins were incubated for 30 min with compounds (final DMSO concentration was 1%; 2% for AG1 and gatastatin). […] Dissociation constants were calculated from fitting curves of decreasing fluorescence (ΔFL) using the GraphPad Prizm software."}, "human γ-tubulin [2]": {"target": "T1, human γ-tubulin", "assay": "Tryptophan-based drug-binding assay, γ-tubulin", "details": "for Ratio of Kd[α/β-tubulin]/Kd[γ-tubulin]: selectivity for γ-tubulin over α/β-tubulin; for Kd: tryptophan fluorescence decrease, 1 μM protein, mean±s.d., three independent experiments", "procedure": "In brief, 0.7 × 10^6 cells ml^−1 were infected with the γ-tubulin baculovirus. After 48 h, cells were collected by centrifugation at […] for 10 min and flash-frozen in liquid nitrogen and stored at −80 °C. Purification was carried out as described with slight modifications. […] Imidazole (final 10 mM) was added and the lysate was centrifuged again at 192,800g for 30 min at 4 °C. […] Ni-NTA Agarose was then washed twice with wash buffer 1 (lysis buffer containing 25 mM imidazole) and wash buffer 2 (50 mM MES pH 6.6, 500 mM KCl, 5 mM MgCl2, 10% glycerol, 10 μM GTP and 1 mM DTT) containing 25 mM imidazole. γ-Tubulin was eluted with wash buffer 2 containing 200 mM imidazole.\nMonomeric γ-tubulin was prepared using a size exclusion column HiLoad 16/60 Superdex 200 pre-equilibrated with gel filtration buffer (50 mM MES pH 6.6, 500 mM KCl, 5 mM MgCl2, 1 mM EGTA, 10 μM GTP and 1 mM DTT). The peak fractions representing monomeric γ-tubulin were identified by A280 and confirmed using SDS–PAGE. Protein was concentrated using a Vivaspin concentrator (Sartorius) and supplemented with 10% glycerol, following snap-freezing in liquid nitrogen and storage at −80 °C.\nas §1"}, "human γ-tubulin [3]": {"target": "T1, human γ-tubulin", "assay": "Inhibition of GTP binding of γ-tubulin (α-[32P]-GTP crosslinking assay)", "details": "60 μM compound; 70 nM γ-tubulin, 100 nM α-[32P]-GTP; mean±s.d.", "procedure": "For analysis of the effect of drugs on GTP binding of γ-tubulin, 70 nM of purified human γ-tubulin in GTP-binding buffer (50 mM MES, 5 mM MgCl2, 1 mM EGTA, pH 6.6) was incubated with or without compounds for 15 min at 20 °C. A final concentration of 100 nM of α-[^32P]-GTP was added and incubated at 20 °C for 30 min. After incubation, bound α-[^32P]-GTP was crosslinked to γ-tubulin for 60 s by illumination with a ultraviolet lamp using CL-1000 Ultraviolet Crosslinker. Protein with the crosslinked GTP was separated from unbound nucleotide by TCA precipitation and SDS–PAGE, and ^32P labelling was measured using a Typhoon FLA-7000 (General Electronic Company). Band intensities were quantified with the ImageJ software."}, "[4]": {"system": "γ-tubulin-dependent, RanQ69L-stimulated aster formation", "assay": "RanQ69L-stimulated aster formation in M-phase Xenopus egg extracts", "assay_type": "biochemical", "procedure": "(§2) Cytostatic factor (CSF)-arrested M phase Xenopus egg extracts (CSF extracts) were prepared. Briefly, unfertilized eggs were crushed by 10,700g centrifugation for 20 min. M phase extracts were mixed with 0.5 μM Cy3-labelled α/β-tubulin and various concentrations of compounds. After incubation for 30 min on ice, 15 μM RanQ69L, 200 sperm nuclei per μl or 5% DMSO were added and incubated for 30 min on ice. After incubation for 20 min at 20 °C (for the samples with sperm nuclei, the incubation time was 30 min), 1.5 μl sample was fixed with 1.5 μl fix solution (0.3 volume of 37% formaldehyde, 0.6 volume of 80% glycerol and 0.1 vol of 10 × MMR solution (50 mM HEPES, pH 7.8, 1 M NaCl, 20 mM KCl, 10 mM MgCl2, 20 mM CaCl2 and 1 mM EDTA)), followed by the squash fix.\n(§3) Images were acquired using a microscope (Axiovert 200 M; Carl Zeiss Inc.) equipped with a plan-Apochromat × 63 NA 1.3 oil objective lens (Carl Zeiss Inc.), a Cy3 emission filter and a Cascade:1 K (Photometrics Inc.) camera, and the AxioVision software (Carl Zeiss Inc.). The aster size and fluorescence intensity were quantified using a macro written in MATLAB[41]."}, "[5]": {"system": "DMSO-stimulated, γ-tubulin-independent aster formation", "assay": "DMSO-stimulated aster formation in M-phase Xenopus egg extracts", "assay_type": "biochemical", "details": "M-phase-arrested Xenopus egg extracts, 5% DMSO, 20 min at 20 °C", "procedure": "as §2, §3"}, "[6]": {"system": "HeLa cells expressing EB3-EGFP (interphase)", "assay": "EB3-EGFP signal tracking, interphase cells", "assay_type": "cell-based, human", "details": "15 min; for Track length / Track lifetime / Velocity: interphase HeLa EB3-EGFP, mean±s.d.; for Track numbers: interphase, from a 144-μm^2 area inside the cell", "procedure": "A HeLa ‘Kyoto' cell line stably expressing EB3-EGFP (a kind gift from Dr J. Ellenberg) was maintained in DMEM+GlutaMAX (Gibco) supplemented with 10% FBS, 2 mM L-glutamine, 100 U ml^−1 penicillin, 100 μg ml^−1 streptomycin, 1 mM sodium pyruvate and 0.5 mg ml^−1 G418. Cells were seeded into eight-well Lab-Tek chambers (Nunc, Rochester, NY) for 24-h prior imaging. For imaging, the medium was exchanged to Live Cell Imaging Solution (Molecular Probes Life Technologies) supplemented as described above and containing various concentrations of AG1 or gatastatin. Interphase cells were incubated with drugs for 15 min and mitotic cells were treated as described in Fig. 4c. Then, EB3 tracks were observed under a PerkinElmer UltraVIEW ERS Spinning Disk microscope (Software: UltraVIEW ERS Imaging Suite) equipped with a Plan-APOCHROMAT × 100/1.4 Oil DIC objective, a Confocal Scanner Unit (Yokogawa CSU 22), a Hamamatsu EM CCD camera (C9100-50) and a 488-nm Argon laser at 37 °C, and time-lapse sequences were performed for 60 s with a 400-ms interval. Automatic analysis of EB3-EGFP signal tracks was performed with ImageJ (http://imagej.nih.gov/ij/) and Matlab (Mathworks) as described."}, "HeLa cells": {"system": "HeLa cells", "assay": "Analysis of interphase MT network", "assay_type": "cell-based, human", "details": "30 μM, 2.5 h", "procedure": "HeLa cells were cultured in DMEM containing 10% FBS in a humidified atmosphere containing 5% CO2. After treatment with each compound for 2.5 h (interphase MT network) or 5 h (mitotic spindle), the cells were immediately fixed with cold MeOH (−20 °C). After blocking with PBS containing 0.5% bovine serum albumin, cells were incubated with anti-α-tubulin antibodies (1:500 dilution, Santa Cruz, Cat# sc-32293) to observe interphase cells, or with anti-BubR1 (1:250 dilution, BD Bioscience, Cat# 612502) and anti-α-tubulin (1:250 dilution, MBL, Cat# PM054) antibodies to observe mitotic spindle. After staining with Alexa^488-conjugated anti-mouse IgG (1:2,000 dilution, Invitrogen, Cat#A11001) and Alexa568-conjugated anti-rabbit IgG (1:2000 dilution, Invitrogen, Cat#A11011), cells were washed four times with PBS and mounted with PBS containing 0.1 μg ml^−1 DAPI. MTs and BubR1 signals were observed under a Leica LAS AF 6000 fluorescence microscope (Leica Microsystems) or an LSM 700 laser-scanning confocal microscope (Zeiss)."}},
  "data": [
    {"compound": "Nc1nc2c(ncn2[C@@H]2O[C@H](COP(=O)(O)OP(=O)(O)OP(=O)(O)O)[C@@H](O)[C@H]2O)c(=O)[nH]1", "note": "[GTP]", "values": [
      {"measurement": "Kd", "setting": "human γ-tubulin [1]", "result": 0.121, "unit": "µM"}
    ]},
    {"compound": "COc1cc2occ(-c3cc(OC)c4c(c3OC)OCO4)c(=O)c2cc1OC", "note": "[AG1, glaziovianin A, reference compound]", "values": [
      {"measurement": "Kd", "setting": "α/β-tubulin", "result": "51.9 ± 36.4", "unit": "µM"},
      {"measurement": "Ratio of Kd[α/β-tubulin]/Kd[γ-tubulin]", "setting": "human γ-tubulin [2]", "result": 0.61},
      {"measurement": "Kd", "setting": "human γ-tubulin [2]", "result": "85.3 ± 22.8", "unit": "µM"},
      {"measurement": "GTP binding (control %)", "setting": "human γ-tubulin [3]", "result": "93.7±11.7", "unit": "%"},
      {"measurement": "IC50", "setting": "[4]; M-phase-arrested Xenopus egg extracts, 15 μM RanQ69L, 20 min at 20 °C", "result": 0.44, "unit": "µM"},
      {"measurement": "IC50[DMSO-aster]/IC50[RanQ69L-aster]", "setting": "[4]; ratio of IC50 values", "result": 3.14},
      {"measurement": "IC50", "setting": "[5]", "result": 1.37, "unit": "µM"},
      {"measurement": "Track length", "setting": "[6]; 1 μM", "result": "0.73±0.09", "unit": "μm"},
      {"measurement": "Track lifetime", "setting": "[6]; 1 μM", "result": "3.30 ± 0.57", "unit": "s"},
      {"measurement": "Velocity", "setting": "[6]; 1 μM", "result": "9.59±1.01", "unit": "μm min^−1"},
      {"measurement": "Track numbers", "setting": "[6]; 1 μM", "result": "106±30"},
      {"measurement": "Track length", "setting": "[6]; 3 μM", "result": "0.43±0.07", "unit": "μm"},
      {"measurement": "Track lifetime", "setting": "[6]; 3 μM", "result": "2.20 ± 0.67", "unit": "s"},
      {"measurement": "Velocity", "setting": "[6]; 3 μM", "result": "7.33±1.23", "unit": "μm min^−1"},
      {"measurement": "Track numbers", "setting": "[6]; 3 μM", "result": "110±42"},
      {"measurement": "Effect on interphase MT network", "setting": "HeLa cells", "result": "caused partial depolymerization of interphase MT network"}
    ]},
    {"compound": "CC(C)(C)c1[nH]cnc1/C=c1\\[nH]c(=O)/c(=C/c2ccccc2)[nH]c1=O", "note": "[Plinabulin]", "values": [
      {"measurement": "Kd", "setting": "α/β-tubulin", "result": "0.5 ± 0.1", "unit": "µM"},
      {"measurement": "Ratio of Kd[α/β-tubulin]/Kd[γ-tubulin]", "setting": "human γ-tubulin [2]", "result": 0.01},
      {"measurement": "Ratio of Kd[α/β-tubulin]/Kd[γ-tubulin]", "setting": "human γ-tubulin [2]; listed as plinabulin", "result": "< 0.05"},
      {"measurement": "Kd", "setting": "human γ-tubulin [2]", "result": "83.3 ± 18.5", "unit": "µM"}
    ]},
    {"compound": "COc1ccc(/C=c2\\[nH]c(=O)/c(=C/c3cccc(C(=O)c4ccccc4)c3)[nH]c2=O)cc1", "note": "[KPU-406]", "values": [
      {"measurement": "Kd", "setting": "α/β-tubulin", "result": "26.3 ± 2", "unit": "µM"},
      {"measurement": "Ratio of Kd[α/β-tubulin]/Kd[γ-tubulin]", "setting": "human γ-tubulin [2]", "result": 0.57},
      {"measurement": "Kd", "setting": "human γ-tubulin [2]", "result": "46.1 ± 27.6", "unit": "µM"}
    ]},
    {"compound": "COC(=O)Nc1nc2ccc(C(=O)c3cccs3)cc2[nH]1", "note": "[Nocodazole]", "values": [
      {"measurement": "Kd", "setting": "α/β-tubulin", "result": "1.8 ± 0.6", "unit": "µM"},
      {"measurement": "Ratio of Kd[α/β-tubulin]/Kd[γ-tubulin]", "setting": "human γ-tubulin [2]", "result": 0.03},
      {"measurement": "Kd", "setting": "human γ-tubulin [2]", "result": "54.9 ± 19", "unit": "µM"}
    ]}
  ]
}
